Assay [1] has as its system primary human fibroblasts derived from IPF patients (LL29 cells). As to the kind of experiment: Inhibition of fibrosis (αSMA staining) in TGF-β1-treated primary human fibroblasts from IPF patients. The format is cell-based. As to conditions: Fibroblast, 96 h, TGF-β1 20 ng/mL, 4 days. The method, then:
The above synthesized compounds were screened using primary human fibroblasts (derived from IPF patients) treated with TGF-β1 to determine their ability to inhibit the fibrotic process.
Compound Screening: Each compound was dissolved in DMSO as a 10 mM stock and used to prepare compound source plates. […] LL29 cells were plated at 1,500 cells/well in 80 μl/well F12 medium supplemented with 1% Fetal Bovine Serum. One hour after addition of the cells, TGF-β1 (Peprotech; 20 ng/mL) was added to the plates to induce fibrosis (ref. 1 and 2 above). Wells treated with TGF-β1 and containing DMSO were used as controls. Cells were incubated at 37° C. and 5% CO2 for 4 days. Following incubation for 4 days, SYTOX green nucleic acid stain (Life Technologies [Thermo Fisher Scientific]) was added to the wells at a final concentration of 1 uM and incubated at room temperature for 30 min. Cells were then fixed using 4% formaldehyde (Electron Microscopy Sciences), washed 3 times with PBS followed by blocking and permeabilization using 3% Bovine Serum Albumin (BSA; Sigma) and 0.3% Triton X-100 (Sigma) in PBS. Cells were then stained with antibody specific to α-smooth muscle actin (aSMA; Abcam) (ref. 1 and 2 above) in 3% Bovine Serum Albumin (BSA; Sigma) and 0.3% Triton X-100 (Sigma) in PBS, and incubated overnight at 4° C. […] Dead or apoptotic cells were excluded from analysis based on positive SYTOX green staining. % of total cells positive for αSMA were counted in each well and normalized to the average of 11 wells treated with TGF-β1 on the same plate using Dotmatics' Studies Software. […] The EC50 values are reported.

For assay [2], the system named is Wnt activity (Sp5-Luc reporter, SW480 colon carcinoma cells). Kind of assay: Sp5-Luc Wnt reporter gene screening assay in SW480 colon carcinoma cells. Conditions: Homo sapiens. For orientation: In a reporter assay the amount or activity of a reporter protein is the signal.
Method: The screening assay for Wnt activity is described as follows.
SW480 colon carcinoma cells were transduced with a lentiviral vector expressing luciferase with a human Sp5 promoter consisting of a sequence of eight TCF/LEF binding sites. SW480 cells stably expressing the Sp5-Luc reporter gene and a hygromycin resistance gene were selected by treatment with 150 μg/ml of hygromycin for 7 days. These stably transduced SW480 cells were expanded in cell culture and used for all further screening activities. For Sp5-Luc reporter gene assays, the cells were plated at 10,000 cells/well in 96-well plates with growth medium containing 10% fetal calf serum and incubated overnight at 37° C. and 5% CO2. […] Compound transfer from serially diluted source plates to assay plates containing the cells was accomplished using a pintool (Multimek 96, Beckman equipped with V&P Scientific FP1S50H pins) based liquid handling protocol. This protocol used a slotted pin to transfer 50 nl of compound from a source plate well to an assay plate well containing 50 μl of cells in growth medium. […] Control wells received 50 nl of DMSO treatment for normalization and calculating IC50 values. The treated cells were incubated at 37° C. and 5% CO2 for an additional forty-two hours. Following incubation, the growth medium was removed and 50 μl of BrightGlo luminescence reagent (Promega) was added to each well of the 96-well assay plates. The plates were placed on an orbital shaker for 5 min and then luminescence was quantified on the Victor3 (Perkin Elmer) plate reader.

As a reminder, the EC50 is the concentration giving half of the maximal effect. Low readings indicate a more potent agent, high ones a less potent agent. The term IC50 denotes the concentration at which inhibition is half-maximal. Lower therefore signals greater potency in that assay.

In assay [1], `Fc1ccc(-c2cccc3[nH]c(-c4n[nH]c5cnc(-c6cncnc6)cc45)nc23)cc1` [Compound 52, 3-(4-(4-Fluorophenyl)-1H-benzo[d]imidazol-2-yl)-5-(pyrimidin-5-yl)-1H-pyrazolo[3,4-c]pyridine] registered a half-maximal effective concentration (EC50) of 147 nM. 122 nM corresponded to half-maximal inhibition in assay [2] (IC50).
In the same order, the values of `O=C(Nc1cncc(-c2cc3c(-c4nc5c(-c6ccc(F)cc6)cccc5[nH]4)n[nH]c3cn2)c1)C1CCC1` [Compound 46, N-(5-(3-(4-(4-Fluorophenyl)-1H-benzo[d]imidazol-2-yl)-1H-pyrazolo[3,4-c]pyridin-5-yl)pyridin-3-yl)cyclobutanecarboxamide] are 94 nM and 48.9 nM.
In the same order, the values of `CN(C)Cc1cncc(-c2cc3c(-c4nc5c(-c6cccs6)cccc5[nH]4)n[nH]c3cn2)c1` [Compound 325, N,N-Dimethyl-1-(5-(3-(4-(thiophen-2-yl)-1H-benzo[d]imidazol-2-yl)-1H-pyrazolo[3,4-c]pyridin-5-yl)pyridin-3-yl)methanamine] are 9 nM and 26.7 nM.
In the case of `CC(=O)c1ccc(-c2cccc3[nH]c(-c4n[nH]c5cnc(-c6cncc(NC(=O)Cc7ccccc7)c6)cc45)nc23)s1` [Compound 400, N-(5-(3-(4-(5-Acetylthiophen-2-yl)-1H-benzo[d]imidazol-2-yl)-1H-pyrazolo[3,4-c]pyridin-5-yl)pyridin-3-yl)-2-phenylacetamide], the EC50 in assay [1] worked out at 218 nM. The half-maximal inhibitory concentration (IC50) in assay [2] worked out at 42.3 nM.
Molecule `CS(=O)(=O)NCc1cc(F)cc(-c2cccc3[nH]c(-c4n[nH]c5cnc(-c6cncc(CNCc7ccccc7)c6)cc45)nc23)c1` [Compound 439, N-(3-(2-(5-(5-((Benzylamino)methyl)pyridin-3-yl)-1H-pyrazolo[3,4-c]pyridin-3-yl)-1H-benzo[d]imidazol-4-yl)-5-fluorobenzyl)methanesulfonamide] returned a concentration for a half-maximal effect (EC50) in assay [1] of 9 nM. Besides, in assay [2], half-maximal inhibition (IC50) was put at 40.1 nM.
In the same order, the values of `COc1cncc(-c2cc3c(-c4nc5c(-c6cccc(F)c6)cccc5[nH]4)n[nH]c3cn2)c1` [Compound 948, 3-(4-(3-Fluorophenyl)-1H-benzo[d]imidazol-2-yl)-5-(5-methoxypyridin-3-yl)-1H-pyrazolo[3,4-c]pyridine] are 72 nM and 33 nM.
The corresponding values for `O=C(Nc1cncc(-c2cc3c(-c4nc5c(-c6ccccc6F)cccc5[nH]4)n[nH]c3cn2)c1)C1CCCC1` [Compound 73, N-(5-(3-(4-(2-Fluorophenyl)-1H-benzo[d]imidazol-2-yl)-1H-pyrazolo[3,4-c]pyridin-5-yl)pyridin-3-yl)cyclopentanecarboxamide] are 1190 nM and 123 nM.
The corresponding values for `CC(C)CC(=O)Nc1cncc(-c2cc3c(-c4nc5c(-c6ccc(F)cc6)cccc5[nH]4)n[nH]c3cn2)c1` [Compound 28, N-(5-(3-(4-(4-Fluorophenyl)-1H-benzo[d]imidazol-2-yl)-1H-pyrazolo[3,4-c]pyridin-5-yl)pyridin-3-yl)-3-methylbutanamide] are 741 nM and 90.8 nM.
In the case of `CCC(=O)Nc1cncc(-c2cc3c(-c4nc5c(-c6cccc(F)c6)cccc5[nH]4)n[nH]c3cn2)c1` [Compound 1, N-(5-(3-(4-(3-Fluorophenyl)-1H-benzo[d]imidazol-2-yl)-1H-pyrazolo[3,4-c]pyridin-5-yl)pyridin-3-yl)propionamide], the 50% effective concentration (EC50) in assay [1] is 9 nM. The molecule further came in with an IC50 in assay [2] of 43.9 nM.
In the same order, the values of `c1cc(-c2ccoc2)c2nc(-c3n[nH]c4cnc(-c5cncc(CNCC6CCCC6)c5)cc34)[nH]c2c1` [Compound 310, 1-Cyclopentyl-N-((5-(3-(4-(furan-3-yl)-1H-benzo[d]imidazol-2-yl)-1H-pyrazolo[3,4-c]pyridin-5-yl)pyridin-3-yl)methyl)methanamine] are 83 nM and 58.8 nM.
In the same order, the values of `c1ccc(CNCc2cncc(-c3cc4c(-c5nc6c(-c7ccsc7)cccc6[nH]5)n[nH]c4cn3)c2)cc1` [Compound 283, N-Benzyl-1-(5-(3-(4-(thiophen-3-yl)-1H-benzo[d]imidazol-2-yl)-1H-pyrazolo[3,4-c]pyridin-5-yl)pyridin-3-yl)methanamine] are 9 nM and 30.9 nM.
The corresponding values for `CC(C)(C)CC(=O)Nc1cncc(-c2cc3c(-c4nc5c(-c6ccccc6F)cccc5[nH]4)n[nH]c3cn2)c1` [Compound 68, N-(5-(3-(4-(2-Fluorophenyl)-1H-benzo[d]imidazol-2-yl)-1H-pyrazolo[3,4-c]pyridin-5-yl)pyridin-3-yl)-3,3-dimethylbutanamide] are 1670 nM and 164 nM.
`CS(=O)(=O)NCc1cc(F)cc(-c2cccc3[nH]c(-c4n[nH]c5cnc(-c6cncc(NC(=O)c7ccccc7)c6)cc45)nc23)c1` [Compound 427, N-(5-(3-(4-(3-Fluoro-5-(methylsulfonamidomethyl)phenyl)-1H-benzo[d]imidazol-2-yl)-1H-pyrazolo[3,4-c]pyridin-5-yl)pyridin-3-yl)benzamide] displayed a half-maximal effective concentration (EC50) in assay [1] of 9 nM. This molecule also returned an IC50 in assay [2] of 172 nM.
`O=C(Nc1cncc(-c2cc3c(-c4nc5c(-c6cccc(F)c6)cccc5[nH]4)n[nH]c3cn2)c1)C1CCC1` [Compound 20]: the concentration for a half-maximal effect (EC50) in assay [1] came to 10 nM. In assay [2], it took 74.4 nM to reach half-maximal inhibition (IC50).
Molecule `CC(C)C(=O)Nc1cncc(-c2cc3c(-c4nc5c(-c6cccnc6)cccc5[nH]4)n[nH]c3cn2)c1` [Compound 87, N-(5-(3-(4-(Pyridin-3-yl)-1H-benzo[d]imidazol-2-yl)-1H-pyrazolo[3,4-c]pyridin-5-yl)pyridin-3-yl)isobutyramide] showed an EC50 in assay [1] of 124 nM. The IC50 in assay [2] was determined as 45.4 nM.
In the same order, the values of `Fc1ccc(-c2cccc3[nH]c(-c4n[nH]c5cnc(-c6cncc(CN7CCCC7)c6)cc45)nc23)cc1` [Compound 40, 3-(4-(4-Fluorophenyl)-1H-benzo[d]imidazol-2-yl)-5-(5-(pyrrolidin-1-ylmethyl)pyridin-3-yl)-1H-pyrazolo[3,4-c]pyridine] are 78 nM and 287 nM.
In the same order, the values of `CC(C)(C)C(=O)Nc1cncc(-c2cc3c(-c4nc5c(-c6cccs6)cccc5[nH]4)n[nH]c3cn2)c1` [Compound 320, N-(5-(3-(4-(Thiophen-2-yl)-1H-benzo[d]imidazol-2-yl)-1H-pyrazolo[3,4-c]pyridin-5-yl)pyridin-3-yl)pivalamide] are 96 nM and 56.6 nM.
In the same order, the values of `CS(=O)(=O)NCc1cc(F)cc(-c2cccc3[nH]c(-c4n[nH]c5cnc(-c6cncnc6)cc45)nc23)c1` [Compound 442, N-(3-Fluoro-5-(2-(5-(pyrimidin-5-yl)-1H-pyrazolo[3,4-c]pyridin-3-yl)-1H-benzo[d]imidazol-4-yl)benzyl)methanesulfonamide] are 9 nM and 26 nM.
For `CCCC(=O)Nc1cncc(-c2cc3c(-c4nc5c(-c6ccc(C)s6)cccc5[nH]4)n[nH]c3cn2)c1` [Compound 381, N-(5-(3-(4-(5-Methylthiophen-2-yl)-1H-benzo[d]imidazol-2-yl)-1H-pyrazolo[3,4-c]pyridin-5-yl)pyridin-3-yl)butyramide], in assay [1], the concentration giving a half-maximal response (EC50) stood at 79 nM. The same molecule registered an IC50 in assay [2] of 21.5 nM.
The corresponding values for `Fc1cccc(-c2cccc3[nH]c(-c4n[nH]c5cnc(-c6cnccn6)cc45)nc23)c1` [Compound 954, 3-(4-(3-Fluorophenyl)-1H-benzo[d]imidazol-2-yl)-5-(pyrazin-2-yl)-1H-pyrazolo[3,4-c]pyridine] are 253 nM and 45 nM.
The corresponding values for `CC(C)(C)C(=O)Nc1cncc(-c2cc3c(-c4nc5c(-c6ccoc6)cccc5[nH]4)n[nH]c3cn2)c1` [Compound 294, N-(5-(3-(4-(Furan-3-yl)-1H-benzo[d]imidazol-2-yl)-1H-pyrazolo[3,4-c]pyridin-5-yl)pyridin-3-yl)pivalamide] are 9 nM and 48.6 nM.
The corresponding values for `Fc1ccc(-c2cccc3[nH]c(-c4n[nH]c5cnc(-c6cncc(CN7CCCC7)c6)cc45)nc23)s1` [Compound 352, 3-(4-(5-Fluorothiophen-2-yl)-1H-benzo[d]imidazol-2-yl)-5-(5-(pyrrolidin-1-ylmethyl)pyridin-3-yl)-1H-pyrazolo[3,4-c]pyridine] are 9990 nM and 30.5 nM.
Regarding `CN1CCN(c2cccc3[nH]c(-c4n[nH]c5cnc(-c6cncc(NC(=O)C7CCCC7)c6)cc45)nc23)CC1` [Compound 229, N-(5-(3-(4-(4-Methylpiperazin-1-yl)-1H-benzo[d]imidazol-2-yl)-1H-pyrazolo[3,4-c]pyridin-5-yl)pyridin-3-yl)cyclopentanecarboxamide], the EC50 in assay [1] came to 9990 nM. The molecule further registered an IC50 in assay [2] of 628 nM.
The corresponding values for `CCNCc1cncc(-c2cc3c(-c4nc5c(-c6cc(F)cc(NCCN(C)C)c6)cccc5[nH]4)n[nH]c3cn2)c1` [Compound 448, N^1-(3-(2-(5-(5-((Ethylamino)methyl)pyridin-3-yl)-1H-pyrazolo[3,4-c]pyridin-3-yl)-1H-benzo[d]imidazol-4-yl)-5-fluorophenyl)-N^2,N^2-dimethylethane-1,2-diamine] are 9 nM and 671 nM.

Source of the values: patent US10202377B2, “3-(1H-benzo[D]imidazol-2-yl)-1H-pyrazolo[3,4-C]pyridine and therapeutic uses thereof” (Samumed, LLC, priority 2014, dated 2019).
